# Measured values: article doi:10.1101/2025.01.13.632836v7 (biorxiv, 2026)
# Biological target: hERG potassium channel (Homo sapiens, UniProt Q12809)
# Experiment: fluorescence polarization, fluorescent tracer displacement
# Format: binding
# Chain of hERG potassium channel (Q12809 whole entry): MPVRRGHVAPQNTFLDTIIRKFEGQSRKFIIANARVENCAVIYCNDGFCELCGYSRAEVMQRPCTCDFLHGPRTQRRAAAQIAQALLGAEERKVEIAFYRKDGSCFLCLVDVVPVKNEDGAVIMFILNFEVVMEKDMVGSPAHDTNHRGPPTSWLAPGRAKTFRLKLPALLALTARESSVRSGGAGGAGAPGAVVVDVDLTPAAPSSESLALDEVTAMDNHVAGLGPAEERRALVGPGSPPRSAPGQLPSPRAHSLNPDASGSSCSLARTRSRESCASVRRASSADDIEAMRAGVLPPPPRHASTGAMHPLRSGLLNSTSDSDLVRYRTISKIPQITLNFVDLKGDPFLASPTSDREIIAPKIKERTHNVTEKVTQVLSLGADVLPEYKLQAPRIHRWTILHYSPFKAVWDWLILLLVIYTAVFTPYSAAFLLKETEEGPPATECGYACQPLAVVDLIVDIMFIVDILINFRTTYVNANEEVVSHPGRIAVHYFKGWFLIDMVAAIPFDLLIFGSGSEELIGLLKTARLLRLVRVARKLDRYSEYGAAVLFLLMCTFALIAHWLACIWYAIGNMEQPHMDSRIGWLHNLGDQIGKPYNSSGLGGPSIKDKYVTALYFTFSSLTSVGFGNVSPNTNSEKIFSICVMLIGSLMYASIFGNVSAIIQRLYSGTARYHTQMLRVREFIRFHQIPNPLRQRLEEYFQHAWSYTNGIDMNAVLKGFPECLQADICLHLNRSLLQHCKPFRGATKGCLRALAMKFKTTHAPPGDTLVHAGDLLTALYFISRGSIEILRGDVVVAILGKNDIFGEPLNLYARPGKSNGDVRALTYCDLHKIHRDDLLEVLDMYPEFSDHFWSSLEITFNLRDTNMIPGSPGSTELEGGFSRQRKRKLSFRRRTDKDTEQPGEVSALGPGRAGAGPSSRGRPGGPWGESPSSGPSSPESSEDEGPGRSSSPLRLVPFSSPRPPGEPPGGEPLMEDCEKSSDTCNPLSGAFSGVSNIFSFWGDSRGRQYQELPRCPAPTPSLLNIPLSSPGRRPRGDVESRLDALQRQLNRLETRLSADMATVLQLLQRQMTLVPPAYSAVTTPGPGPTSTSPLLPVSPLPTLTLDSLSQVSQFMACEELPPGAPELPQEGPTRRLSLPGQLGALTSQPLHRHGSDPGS
smiles,measurement,value
Cc1c(-c2ccc(O)cc2)n(Cc2ccc(OCCN3CCCCC3)cc2)c2ccc(O)cc12 [MDL-001],IC50,13 µM
